Test results: patent US9499495B2, “Quinazolines and azaquinazolines as dual inhibitors of RAS/RAF/MEK/ERK and PI3K/AKT/PTEN/mTOR pathways” (Asana Biosciences, LLC, priority 2013, dated 2016)

What was measured:
mTOR kinase = molecular target: T1, mTOR kinase (Homo sapiens, UniProt P42345); assay: mTOR kinase TR-FRET assay; format: biochemical
T1 construct: purchased Millipore, US
Method in brief: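 TR-FRET with ULight-p70 S6K (Thr 389) peptide (50 nM) and 20 μM ATP in 50 mM HEPES pH 7.5, 1 mM EGTA, 3 mM MnCl2; compound pre-incubated with enzyme before substrate addition, reaction at rt, EDTA-stopped. Eu anti-phospho antibody read 665/615 nm; IC50 from sigmoidal dose-response fit.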

pERK in A375 cells = assay: In Cell Western (ICW) assay, pERK in A375 cells; format: cell-based; details: Homo sapiens, A-375, 3 h treatment
Method in brief: (§1)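 RKO or A375 cells were exposed to compounds for 3 h at 37 °C, then fixed and stained in-cell with antibodies to pERK1/2 (T202/Y204), pS6RP or pAKT T308, followed by a Eu-labelled secondary. Time-resolved fluorescence (340/615 nm) was normalized to Hoechst, and IC50 values were fitted sigmoidally against DMSO as 0% inhibition.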

pS6RP in RKO cells = assay: In Cell Western (ICW) assay, pS6RP in RKO cells; format: cell-based; details: Homo sapiens, 3 h treatment
Method in brief: as §1

pAKT (T308) in RKO cells = assay: In Cell Western (ICW) assay, pAKT-T308 in RKO cells; format: cell-based; details: Homo sapiens, 3 h treatment
Procedure: Cell lines A375, A2058 and RKO obtained from the ATCC as provided above, were grown, and after attaining ˜80% confluency were trypsinized, centrifuged and resuspended in fresh media. The cells were seeded at the specified density (20,000 to 50,000) in a 96-well format black-well clear bottom plate (Corning) and incubated overnight at 37° C. in a 5% CO2 incubator. The next day, compound dilutions of test compounds were prepared in 100% DMSO followed by dilutions in respective media. Treatment of test compounds was performed for 3 h at 37° C. in 5% CO2 incubator. Following 3 h drug treatment, the conditional media was discarded and the cells were washed once with cPBS (PBS containing 0.1% magnesium chloride hexahydrate and 0.1% anhydrous calcium chloride) and fixed with 4% paraformaldehyde in cPBS for 1 h at rt. After fixing, the cells were given three washes using cPBST (cPBS containing 0.1% Triton™ X-100 reagent) and then blocked using blocking solution (5% skimmed milk powder or 5% BSA prepared in cPBST) for 2 h at rt with shaking at 300 rpm. The cells were again washed thrice with cPBST and incubated with primary antibody phospho-p44/42 MAPK(Erk1/2)(Thr202/204) antibody (Cell Signaling, Catalog # 9101L), phospho S6 ribosomal protein (Cell Signaling, Catalog #4858L), phospho AKT (Thr 308) (Cell Signaling, Catalog #9275) or phospho AKT (Ser 473) (Cell Signaling, Catalog #4060L) in specified dilutions (1:500-1:2500), prepared in respective blocking solutions, in a racker overnight at 4° C. The next day, the cells were washed with 1× Delfia® wash buffer (4×1 wash) and incubated with secondary antibody (Delfia®-Eu-N1 labeled anti-rabbit antibody; PerkinElmer, Catalog #AD0105; dilutions: 1:2000 to 1:6000 in Delfia® assay buffer (PerkinElmer, Catalog #1244-111)) for 2 h at rt in the dark at 300 rpm. The cells were then given four washes with 1× Delfia® wash buffer and incubated with Wallac Delfia® Enhancement solution (100 μL; PerkinElmer, Catalog #1244-105) for 20 min at rt in the dark at 300 rpm. The fluorescence emission was then read at 615 nm with an excitation wavelength of 340 nm using a Victor V5 Fluorometer (Perkin Elmer, US). The cells were then washed once with 1×cPBS and incubated with 100 μL of 0.5 mg/mL of Hoechst 33258 dye prepared in cPBS and read at 460 nm with 355 nm excitation, thereby evaluating the correction factor.
The % inhibition for the test compounds of formula (I) (new chemical entities (NCEs)) was calculated keeping DMSO control as 0% and the IC50 values were determined using sigmoidal dose response curve fit in GraphPad Prism® v5 software.

RKO cells = assay: XTT assay for cell viability, RKO cells; format: cell-based; details: Homo sapiens, 72 h
Method in brief: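 RKO and A375 cells seeded at 1000-2000/well overnight, then exposed to compound for 72 h at 37° C., 5% CO2. XTT (1 mg/ml)/PMS (25 μM) added for 2-3 h; absorbance at 450 nm. Growth relative to DMSO control (100%); GI50 from sigmoidal dose-response fit.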

pERK in RKO cells = assay: In Cell Western (ICW) assay, pERK in RKO cells; format: cell-based; details: Homo sapiens, 3 h treatment
Method in brief: as §1

T1 sequence (P42345 1362-2549 limits assumed): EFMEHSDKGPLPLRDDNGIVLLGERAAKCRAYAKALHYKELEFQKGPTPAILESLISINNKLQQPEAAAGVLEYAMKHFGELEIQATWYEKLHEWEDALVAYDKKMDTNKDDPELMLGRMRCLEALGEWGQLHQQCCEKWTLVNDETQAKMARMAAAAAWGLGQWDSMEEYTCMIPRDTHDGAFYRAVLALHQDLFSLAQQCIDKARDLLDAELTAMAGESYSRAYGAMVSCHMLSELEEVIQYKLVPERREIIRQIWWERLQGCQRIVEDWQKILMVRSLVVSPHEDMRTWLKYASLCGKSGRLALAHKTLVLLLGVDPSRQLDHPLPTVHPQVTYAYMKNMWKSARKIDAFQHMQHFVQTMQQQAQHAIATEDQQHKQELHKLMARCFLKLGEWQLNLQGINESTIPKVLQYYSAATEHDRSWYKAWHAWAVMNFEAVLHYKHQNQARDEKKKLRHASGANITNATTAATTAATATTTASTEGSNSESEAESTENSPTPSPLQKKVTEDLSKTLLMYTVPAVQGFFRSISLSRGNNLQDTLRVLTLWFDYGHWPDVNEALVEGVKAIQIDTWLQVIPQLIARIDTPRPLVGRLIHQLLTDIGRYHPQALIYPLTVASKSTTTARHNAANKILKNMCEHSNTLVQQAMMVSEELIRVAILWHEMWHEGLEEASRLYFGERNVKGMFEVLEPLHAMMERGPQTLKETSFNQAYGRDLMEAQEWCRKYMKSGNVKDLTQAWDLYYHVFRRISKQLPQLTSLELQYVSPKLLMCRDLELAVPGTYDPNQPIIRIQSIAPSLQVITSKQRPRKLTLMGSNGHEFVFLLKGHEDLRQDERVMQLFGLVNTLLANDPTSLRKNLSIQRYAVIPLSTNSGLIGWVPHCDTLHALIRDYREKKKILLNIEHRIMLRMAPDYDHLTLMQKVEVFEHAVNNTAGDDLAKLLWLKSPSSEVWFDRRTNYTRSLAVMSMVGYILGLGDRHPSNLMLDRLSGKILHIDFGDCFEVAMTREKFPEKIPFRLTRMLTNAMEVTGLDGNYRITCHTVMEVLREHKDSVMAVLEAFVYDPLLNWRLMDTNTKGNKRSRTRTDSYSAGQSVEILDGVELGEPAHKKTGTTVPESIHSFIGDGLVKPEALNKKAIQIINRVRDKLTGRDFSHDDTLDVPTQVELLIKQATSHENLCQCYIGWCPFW

Compound | IC50 (mTOR kinase) [nM] | IC50 (pERK in A375 cells) [nM] | IC50 (pS6RP in RKO cells) [nM] | IC50 (pAKT (T308) in RKO cells) [nM] | IC50 (RKO cells) [nM] | IC50 (pERK in RKO cells) [nM]
COc1cc(-c2c(F)ccc(NS(=O)(=O)CCCF)c2F)cc2c(N3CCOCC3)nc(-c3ccc(N)nc3)nc12 [Example 79, N-(3-(2-(6-aminopyridin-3-yl)-8-methoxy-4-morpholinoquinazolin-6-yl)-2,4-difluorophenyl)-3-fluoropropane-1-sulfonamide] | 1 to 100 | 1 to 100 | 100 to 1000 | 100 to 1000 | 100 to 1000 | 
Nc1ncc(-c2nc(N3CCOCC3)c3nc(-c4cccc(NS(=O)(=O)CCCF)c4F)ccc3n2)cn1 [Example 87, N-(3-(2-(2-aminopyrimidin-5-yl)-4-morpholinopyrido[3,2-d]pyrimidin-6-yl)-2-fluorophenyl)-3-fluoropropane-1-sulfonamide] | 1 to 100 | 100 to 1000 | 100 to 1000 | 100 to 1000 | 100 to 1000 | 
Nc1ccc(-c2nc(N3CCOCC3)c3nc(-c4cccc(NS(=O)(=O)CCCF)c4F)ccc3n2)cn1 [Example 88, N-(3-(2-(6-aminopyridin-3-yl)-4-morpholinopyrido[3,2-d]pyrimidin-6-yl)-2-fluorophenyl)-3-fluoropropane-1-sulfonamide] | 1 to 100 | 100 to 1000 | 100 to 1000 | 100 to 1000 | 100 to 1000 | 100 to 1000
Nc1ccc(-c2nc(N3CCOCC3)c3nc(-c4cccc(NS(=O)(=O)c5cc(F)ccc5F)c4F)ccc3n2)cn1 [Example 92, N-(3-(2-(6-aminopyridin-3-yl)-4-morpholinopyrido[3,2-d]pyrimidin-6-yl)-2-fluorophenyl)-2,5-difluorobenzenesulfonamide] | 100 to 1000 | 1 to 100 |  | 1000 to 10000 | 1000 to 10000 | 100 to 1000
Nc1ncc(-c2nc(N3CCOCC3)c3nc(-c4cccc(NS(=O)(=O)c5cc(F)ccc5F)c4F)ccc3n2)cn1 [Example 93, N-(3-(2-(2-aminopyrimidin 5-yl)-4-morpholinopyrido[3,2-d]pyrimidin-6-yl)-2-fluorophenyl)-2,5-difluorobenzenesulfonamide] | 100 to 1000 | 100 to 1000 |  | 1000 to 10000 | 100 to 1000 | 
Nc1cc(C(F)(F)F)c(-c2nc(N3CCOCC3)c3nc(-c4cccc(NS(=O)(=O)CCCF)c4F)ccc3n2)cn1 [Example 94, N-(3-(2-(6-amino-4-(trifluoromethyl)pyridin-3-yl)-4-morpholinopyrido[3,2-d]pyrimidin-6-yl)-2-fluorophenyl)-3-fluoropropane-1-sulfonamide] | 1 to 100 | 1 to 100 | 100 to 1000 | 100 to 1000 | 100 to 1000 | 1 to 100
Cc1cc(N)ncc1-c1nc(N2CCOCC2)c2nc(-c3cccc(NS(=O)(=O)CCCF)c3F)ccc2n1 [Example 101, N-(3-(2-(6-amino-4-methylpyrtdin-3-yl)-4-morpholinopyrldo[3,2-d]pyrimidin-6-yl)-2-fluorophenyl)-3-fluoropropane-1-sulfonamide] | 100 to 1000 | 1 to 100 | 1 to 100 | 100 to 1000 | 100 to 1000 | 100 to 1000
C[C@H]1COCCN1c1nc(-c2cnc(N)cc2C(F)(F)F)nc2ccc(-c3cccc(NS(=O)(=O)CCCF)c3F)nc12 [Example 108, (S)-N-(3-(2-(6-amino-4-(trifluoromethyl)pyrldin-3-yl)-4-(3-methylmorpholino)pyrido[3,2-d]pyrimidin-6-yl)-2-fluorophenyl)-3-fluoropropane-1-sulfonamide] | 100 to 1000 | 1 to 100 |  | 1000 to 10000 | 100 to 1000 | 100 to 1000
CNc1ccc(-c2nc(N3CCOCC3)c3nc(-c4cccc(NS(=O)(=O)CCCF)c4F)ccc3n2)cn1 [Example 113, 3-fluoro-N-(2-fluoro-3-(2-(6-(methylamino)pyridin-3-yl)-4-morpholinopyrido[3,2-d]pyrimidin-6-yl)phenyl)propane-1-sulfonamide] | 1 to 100 | 1 to 100 |  | 1000 to 10000 | 100 to 1000 | 
